Laboratory results published in article PMC6436837 (Antiviral research, 2018).
Read-outs that look alike come from different tables or passages of the source.

Tests used:
[1] = test system: EBOV polymerase complex; format: cell-based, Ebola virus
[2] = test system: EBOV-GFP; format: cell-based, Ebola virus
[3] = test system: EBOV-GFP; test: microbe, parasite or virus in culture; format: cell-based, Ebola virus; conditions: for IC50: read-out: IC50 against EBOV-GFP
[4] = test system: VSV-GFP; test: microbe, parasite or virus in culture; format: cell-based, vesicular stomatitis virus; conditions: read-out: IC50 against VSV-GFP
[5] = test system: ZIKV; test: microbe, parasite or virus in culture; format: cell-based, Zika virus; conditions: read-out: IC50 against ZIKV
[6] = test system: ISRE promoter; format: cell-based, human
[7] = test system: ISG54, ISG56, and MX1; format: cell-based, human
[8] = test system: ISRE promoter; format: cell-based, mouse
[9] = test system: A549 cells
[10] = test system: Vero cells

O=C(NC1CCCc2c1[nH]c1ccc(Cl)cc21)c1ccccn1 (stereo not drawn) [SW835]
Activity in EBOV MG assay [1]: potent activity
Reduction of viral titers in cell culture supernatants [2]: > 200 fold
IC50 [3]: ~20 nM
IC50 [4]: 400 nM
IC50 [5]: 40 nM
Activation of ISRE promoter [6]: activated the ISRE promoter
ISG54 and ISG56 mRNA response [7]: responded
ISRE reporter induction in MEFs [8]: not affected in IFNAR knockout cells
Effect on cell viability [9]: no effect on cell viability
Effect on cell viability [10]: no significant effect on cell viability

O=C(NC1CCCc2c1[nH]c1ccc(Cl)cc21)c1ccccn1 (stereo not drawn) [SW308]
Activity in EBOV MG assay [1]: less active
Inhibition of EBOV replication [2]: unable to inhibit EBOV virus replication efficiently
IC50 [3]: 1700 nM

Cc1c(-c2ccc(-c3ccccc3F)cc2)nc2ccc(F)cc2c1C(=O)O [brequinar, reference compound]
IC50 ([1]; read-out: IC50 in EBOV MG assay): 100 nM
Inhibition of EBOV replication [2]: potently inhibited virus growth
IC50 ([3]; Zaire ebolavirus, HeLa, 24 h): 100 nM
IC50 ([4]; Vesicular stomatitis virus, Vero, 21 h): 500 nM
IC50 ([5]; Zika virus, Vero, 48 h): 300 nM
Activation of ISRE promoter [6]: activated the ISRE promoter
ISG54 and ISG56 mRNA response [7]: responded
ISRE reporter induction in MEFs [8]: not statistically significant compared to DMSO-treated cells

O=C(N[C@@H]1CCCc2c1[nH]c1ccc(Cl)cc21)c1ccccn1 [GSK983, reference compound]
Reduction of viral titers in cell culture supernatants [2]: > 200 fold
Activity against EBOV-GFP [3]: highly active, even at the lowest concentration tested
Effect on cell viability [9]: no effect on cell viability
